In one series the target is Bcl-2 (Homo sapiens (Human), UniProt P10415). Nature of the series: Bcl-2 competition binding (fluorescence polarization) assay. The following applies: BH3 peptide, 3 hours incubation at room temperature. The procedure:
Biological Example 1: Bcl-2 Competition Binding (Fluorescence Polarization) Assay
This binding assay was performed in 96-well plate and with each assay contained 15 and 30 nM of labeled peptide and purified Bcl-2 protein (purchased from R&D Systems, Inc). The assay buffer contained 20 mM Hepes (pH 7.0), 50 mM KCl, 5 mM MgCl2, 20 mM Na2MoO4, 0.1 mg/ml Bovine Gamma Globulin and 0.01% NP40. Compounds were diluted in DMSO and added to the final assay with concentration range from 20 uM to 2 nM. The polarization degree (mP) value was determined by BioTek Synergy II with background subtraction after 3 hours of incubation at room temperature. IC50 was calculated using Prism software with sigmoidal dose-response curve fitting. ABT-737 was used as reference compound. Such assays, carried out with a range of doses of test compounds, allow the determination of an approximate IC50 value.

For series [1] the following is noted: cited from earlier work.
For series [2] the following is noted: cited from earlier work. The source holds these as a separate data set.
In another series the test system is RS4;11. Nature of the series: In vitro anti-proliferation assay (ATPlite) in BCL-2-dependent acute lymphoblastic leukemia cell line RS4;11. Type of series: cell-based. Particulars: Homo sapiens, about 72 hours, 5% FBS. How it is done:
Biological Example 2: In Vitro Anti-Proliferation Assay in BCL-2-Dependent Acute Lymphoblastic Leukemia Cell Line RS4;11
(§1) Cell antiproliferation is assayed by PerkinElmer ATPlite™ Luminescence Assay System. Briefly, the various test cancer cell lines are plated at a density of about 1×10^4 cells per well in Costar 96-well plates, and are incubated with different concentrations of compounds for about 72 hours in medium supplemented with 5% FBS. One lyophilized substrate solution vial is then reconstituted by adding 5 mL of substrate buffer solution, and is agitated gently until the solution is homogeneous. About 50 μL of mammalian cell lysis solution is added to 100 μL of cell suspension per well of a microplate, and the plate is shaken for about five minutes in an orbital shaker at ˜700 rpm. This procedure is used to lyse the cells and to stabilize the ATP. Next, 50 μL substrate solution is added to the wells and microplate is shaken for five minutes in an orbital shaker at ˜700 rpm. Finally, the luminescence is measured by a PerkinElmer TopCount® Microplate Scintillation Counter. Such assays, carried out with a range of doses of test compounds, allow the determination of the cellular anti-antiproliferative IC50 of the compounds of the present invention. The following table lists the IC50 values of certain compounds of the invention.

Another series deals with H146. Put plainly: In vitro anti-proliferation assay (ATPlite) in BCL-XL-dependent small cell lung cancer cell line H146. Type of series: cell-based. The following applies: for IC50: Homo sapiens, NCI-H146, about 72 hours, 5% FBS. The procedure:
as §1, with “invention.” for “invention. The following table lists the IC50 values of certain compounds of the invention.”

A further series concerns the target Bcl-w (Homo sapiens (Human), UniProt Q92843). The following applies: cited from earlier work.
In a further series the test system is SCLC H146 cell line. The following applies: read-out: IC50 against SCLC H146 cell line; cited from earlier work.
For a further series, the system named is H345 xenograft. The following applies: 100 mg/kg/day, H345 xenograft model; cited from earlier work.
Series [3] deals with xenograft models of small-cell lung cancer and acute lymphoblastic leukemia. Particulars: single agent; cited from earlier work.
The next series deals with circulating platelets. The following applies: clinical trial, patients; cited from earlier work.

Bcl-2, sequence (P10415 whole entry): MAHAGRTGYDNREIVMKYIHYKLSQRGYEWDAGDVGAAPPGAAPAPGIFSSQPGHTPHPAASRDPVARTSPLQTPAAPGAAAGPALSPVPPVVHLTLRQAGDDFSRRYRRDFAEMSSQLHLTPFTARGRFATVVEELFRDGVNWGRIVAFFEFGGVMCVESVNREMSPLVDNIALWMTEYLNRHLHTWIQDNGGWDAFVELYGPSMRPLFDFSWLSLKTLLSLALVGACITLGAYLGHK
Bcl-w, sequence (Q92843 whole entry): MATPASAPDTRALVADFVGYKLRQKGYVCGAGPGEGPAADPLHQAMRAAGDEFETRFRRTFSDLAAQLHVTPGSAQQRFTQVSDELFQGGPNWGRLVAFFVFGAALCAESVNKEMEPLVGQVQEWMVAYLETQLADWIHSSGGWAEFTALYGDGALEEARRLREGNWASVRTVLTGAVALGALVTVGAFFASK

As for `CC1(C)CCC(CN2CCN(c3ccc(C(=O)NS(=O)(=O)c4ccc(OCC5(F)CCN(C6COC6)CC5)c([N+](=O)[O-])c4)c(-n4ncc5nc6[nH]ccc6cc54)c3)CC2)=C(c2ccc(Cl)cc2)C1` [Example 17, 4-(4-((4′-chloro-5,5-dimethyl-3,4,5,6-tetrahydro-[1,1′-biphenyl]-2-yl)methyl)piperazin-1-yl)-N-((4-((4-fluoro-1-(oxetan-3-yl)piperidin-4-yl)methoxy)-3-nitrophenyl)sulfonyl)-2-(pyrazolo[4,3-b]pyrrolo[3,2-e]pyridin-1(5H)-yl)benzamide], the IC50 at Bcl-2 was < 10 nM.

In the case of `CC1(C)CCC(CN2CCN(c3ccc(C(=O)NS(=O)(=O)c4ccc(NC[C@@H]5CN(C6COC6)CCO5)c([N+](=O)[O-])c4)c(-n4ncc5nc6[nH]ccc6cc54)c3)CC2)=C(c2ccc(Cl)cc2)C1` [Example 15, (R)-4-(4-((4′-chloro-5,5-dimethyl-3,4,5,6-tetrahydro-[1,1′-biphenyl]-2-yl)methyl)piperazin-1-yl)-N-((3-nitro-4-(((4-(oxetan-3-yl)morpholin-2-yl)methyl)amino)phenyl)sulfonyl)-2-(pyrazolo[4,3-b]pyrrolo[3,2-e]pyridin-1(5H)-yl)benzamide], on Bcl-2, the IC50 was < 10 nM.

For the compound `CN(C)CC[C@H](CSc1ccccc1)Nc1ccc(S(=O)(=O)NC(=O)c2ccc(N3CCN(Cc4ccccc4-c4ccc(Cl)cc4)CC3)cc2)cc1[N+](=O)[O-]` [ABT-737], the oral bioavailability result in series [1] was “not orally bioavailable”. The aqueous solubility entry in [2] is on record as “low”.

As to `CN1CCC(CNc2ccc(S(=O)(=O)NC(=O)c3ccc(N4CCN(CC5=C(c6ccc(Cl)cc6)CC(C)(C)CC5)CC4)cc3-n3ncc4nc5[nH]ccc5cc43)cc2[N+](=O)[O-])CC1` [Example 13, 4-(4-((4′-chloro-5,5-dimethyl-3,4,5,6-tetrahydro-[1,1′-biphenyl]-2-yl)methyl)piperazin-1-yl)-N-((4-(((1-methylpiperidin-4-yl)methyl)amino)-3-nitrophenyl)sulfonyl)-2-(pyrazolo[4,3-b]pyrrolo[3,2-e]pyridin-1(5H)-yl)benzamide], at Bcl-2, the IC50 was < 10 nM.

Regarding `CN1CCC(F)(CNc2ccc(S(=O)(=O)NC(=O)c3ccc(N4CCN(CC5=C(c6ccc(Cl)cc6)CC(C)(C)CC5)CC4)cc3-n3ncc4nc5[nH]ccc5cc43)cc2[N+](=O)[O-])CC1` [Example 16, 4-(4-((4′-chloro-5,5-dimethyl-3,4,5,6-tetrahydro-[1,1′-biphenyl]-2-yl)methyl)piperazin-1-yl)-N-((4-(((4-fluoro-1-methylpiperidin-4-yl)methyl)amino)-3-nitrophenyl)sulfonyl)-2-(pyrazolo[4,3-b]pyrrolo[3,2-e]pyridin-1(5H)-yl)benzamide], at Bcl-2, the IC50 is < 10 nM.

With `CC1(C)CCC(CN2CCN(c3ccc(C(=O)NS(=O)(=O)c4ccc(NCC5(F)CCOCC5)c([N+](=O)[O-])c4)c(-n4ncc5nc6[nH]ccc6cc54)c3)CC2)=C(c2ccc(Cl)cc2)C1` [Example 12, 4-(4-((4′-chloro-5,5-dimethyl-3,4,5,6-tetrahydro-[1,1′-biphenyl]-2-yl)methyl)piperazin-1-yl)-N-((4-(((4-fluorotetrahydro-2H-pyran-4-yl)methyl)amino)-3-nitrophenyl)sulfonyl)-2-(pyrazolo[4,3-b]pyrrolo[3,2-e]pyridin-1(5H)-yl)benzamide], the IC50 at Bcl-2 was < 10 nM; with RS4;11 it was < 15 nM; in the series on H146, > 2000 nM.

On to `CC1(C)CCC(CN2CCN(c3ccc(C(=O)NS(=O)(=O)c4ccc(N5CCOCC5)c([N+](=O)[O-])c4)c(-n4ncc5nc6[nH]ccc6cc54)c3)CC2)=C(c2ccc(Cl)cc2)C1` [Example 8, 4-(4-((4′-chloro-5,5-dimethyl-3,4,5,6-tetrahydro-[1,1′-biphenyl]-2-yl)methyl)piperazin-1-yl)-N-((4-morpholino-3-nitrophenyl)sulfonyl)-2-(pyrazolo[4,3-b]pyrrolo[3,2-e]pyridin-1(5H)-yl)benzamide], for which, at Bcl-2, the IC50 is < 10 nM.

`CC1(C)CCC(c2ccc(Cl)cc2)=C(CN2CCN(c3ccc(C(=O)NS(=O)(=O)c4ccc(N[C@H](CCN5CCOCC5)CSc5ccccc5)c(S(=O)(=O)C(F)(F)F)c4)cc3)CC2)C1` [ABT-263] showed an IC50 in the series with H146 of 60 nM. Also, the Ki on Bcl-w is ≤ 1 nM. Further, the 50% inhibitory concentration (IC50) with SCLC H146 cell line was 110 nM. Besides, in the series on H345 xenograft, the inhibition of tumour growth (TGI) was 80% and the “treated tumors indicating at least a 50% reduction in tumor volume” value is 20%. Further, the “tumor response, oral administration alone” value in [3] is reported as “complete tumor regressions”. Besides, the “effect on number of circulating platelets” value in the series with circulating platelets is reported as “rapid, concentration-dependent decrease”.

In the case of `CC1(C)CCC(CN2CCN(c3ccc(C(=O)NS(=O)(=O)c4ccc(SCC5CCOCC5)c([N+](=O)[O-])c4)c(-n4ncc5nc6[nH]ccc6cc54)c3)CC2)=C(c2ccc(Cl)cc2)C1` [Example 11, 4-(4-((4′-chloro-5,5-dimethyl-3,4,5,6-tetrahydro-[1,1′-biphenyl]-2-yl)methyl)piperazin-1-yl)-N-((3-nitro-4-(((tetrahydro-2H-pyran-4-yl)methyl)thio)phenyl)sulfonyl)-2-(pyrazolo[4,3-b]pyrrolo[3,2-e]pyridin-1(5H)-yl)benzamide], the concentration for half-maximal inhibition (IC50) at Bcl-2 was < 10 nM.

Turning to `CC1(C)CCC(CN2CCN(c3ccc(C(=O)NS(=O)(=O)c4ccc(NCC5(F)CCN(C6COC6)CC5)c([N+](=O)[O-])c4)c(-n4ncc5nc6[nH]ccc6cc54)c3)CC2)=C(c2ccc(Cl)cc2)C1` [Example 14, 4-(4-((4′-chloro-5,5-dimethyl-3,4,5,6-tetrahydro-[1,1′-biphenyl]-2-yl)methyl)piperazin-1-yl)-N-((4-(((4-fluoro-1-(oxetan-3-yl)piperidin-4-yl)methyl)amino)-3-nitrophenyl)sulfonyl)-2-(pyrazolo[4,3-b]pyrrolo[3,2-e]pyridin-1(5H)-yl)benzamide], the IC50 at Bcl-2 is < 10 nM.

`CC1(C)CCC(CN2CCN(c3ccc(C(=O)NS(=O)(=O)c4ccc(NCC5CCOCC5)c([N+](=O)[O-])c4)c(-n4ncc5nc6[nH]ccc6cc54)c3)CC2)=C(c2ccc(Cl)cc2)C1` [Example 4, 4-(4-((4′-chloro-5,5-dimethyl-3,4,5,6-tetrahydro-[1,1′-biphenyl]-2-yl)methyl)piperazin-1-yl)-N-((3-nitro-4-(((tetrahydro-2H-pyran-4-yl)methyl)amino)phenyl)sulfonyl)-2-(pyrazolo[4,3-b]pyrrolo[3,2-e]pyridin-1(5H)-yl)benzamide]: the IC50 on Bcl-2 is < 10 nM; in the series on RS4;11, < 15 nM; in the series with H146, > 2000 nM. In addition, the “BCL-2 selectivity concluded from H146 IC50” value with H146 (BCL-XL dependent cell line H146) is on record as “BCL-2 selective inhibitor”.

Turning to `CC1(C)CCC(CN2CCN(c3ccc(C(=O)NS(=O)(=O)c4ccc(OCC5CCOCC5)c([N+](=O)[O-])c4)c(-n4ncc5nc6[nH]ccc6cc54)c3)CC2)=C(c2ccc(Cl)cc2)C1` [Example 18, 4-(4-((4′-chloro-5,5-dimethyl-3,4,5,6-tetrahydro-[1,1′-biphenyl]-2-yl)methyl)piperazin-1-yl)-N-((3-nitro-4-((tetrahydro-2H-pyran-4-yl)methoxy)phenyl)sulfonyl)-2-(pyrazolo[4,3-b]pyrrolo[3,2-e]pyridin-1(5H)-yl)benzamide], the 50% inhibitory concentration (IC50) on Bcl-2 is < 10 nM.

The values above are taken from patent US10377755B2, “BCL-2 inhibitors” (Newave Pharmaceutical Inc., priority 2016, dated 2019).
